Test results published in patent US12691109B2, “Bifunctional aggregation-induced emission luminogen for monitoring and killing of multidrug-resistant bacteria” (The Hong Kong University of Science and Technology, priority 2018, dated 2026).

How the values were obtained:
Assay in all cases: Antibacterial activity, MIC
Format in all cases: cell-based
[1] = tested on: MDR S. aureus; conditions: clinical MDR isolate
[2] = tested on: MDR K. pneumoniae; conditions: clinical MDR isolate
[3] = tested on: K. pneumoniae; conditions: laboratory-sensitive strain
[4] = tested on: S. aureus; conditions: laboratory-sensitive strain
[5] = tested on: MDR S. epidermidis; conditions: clinical MDR isolate
[6] = tested on: S. epidermidis; conditions: laboratory-sensitive strain
[7] = tested on: E. coli; conditions: laboratory-sensitive strain
[8] = tested on: MDR E. coli; conditions: clinical MDR isolate

Substance | MIC, MDR S. aureus [1] | MIC, MDR K. pneumoniae [2] | MIC, K. pneumoniae [3] | MIC, S. aureus [4] | MIC, MDR S. epidermidis [5] | MIC, S. epidermidis [6] | MIC, E.coli [7] | MIC, MDR E.coli [8] | MIC, MDR K. pneumoniae ([2]; listed as polymyxin) | MIC, MDR E.coli ([8]; listed as polymyxin)
Penicilin | 64 µg/mL | >128 µg/mL | 32 µg/mL | <2 µg/mL | >32 µg/mL | <2 µg/mL | <2 µg/mL | >128 µg/mL | – | –
Gentamicin | >128 µg/mL | >128 µg/mL | <2 µg/mL | <2 µg/mL | <2 µg/mL | <2 µg/mL | <2 µg/mL | >128 µg/mL | – | –
Polymyxin | >128 µg/mL | 64 µg/mL | <2 µg/mL | >128 µg/mL | >128 µg/mL | 64 µg/mL | 16 µg/mL | 32 µg/mL | > 64 µg/mL | > 32 µg/mL
